From patent US5037852A, “Cinnamoylamide derivatives” (Ono Pharmaceutical Co., Ltd., priority 1987, dated 1991) come the findings set out here.

Each structure is given as a SMILES string.

In the experiment the target is 5α-reductase. Description: Inhibitory activity on 5α-reductase in vitro (rat prostate enzyme, [4-C14]-testosterone conversion to dihydrotestosterone). In kind it is biochemical. Particulars: male rat prostate enzyme; [4-C14]-testosterone 1.5 n mol, NADPH; 60 mins at 37° C.; pH 7.4 buffer. How it is done:
The test was carried out with reference to the method of J. Shimazaki et al [See Endocrinol, Japon., 18, 179 (1971).]
Male rat's prostate (4 g) was homogenized with its triple volume of 0.1M HEPES buffer (PH 7.4) including 0.25M cane sugar and was centrifuged at 3000 r.p.m. for 10 mins.
The precipitate was suspended into the buffer solution described above (10 ml), and the suspension was centrifuged at 3000 r.p.m for 5 mins. The resulting precipitated was suspended in the buffer solution (3 ml) described above and was used as a sauce of enzyme.
A reaction mixture (total volume 0.1 ml) of [4-C^14 ]-testosterone (1.5n mol, 1.5×10^5 cpm), NADPH (0.5 μmol), enzyme solution (0.03 ml) described above and several kinds of concentration of the compounds in the present invention was incubated for 60 mins at 37° C. Enzyme reaction was quenched by addition of a mixture (0.4 ml) of chloroform and methanol (1:2), and the mixture was centrifuged at 2000 r.p.m for 3 mins. The supernatant (50 μl) was spotted on silica gel thin layer plate. The spot on the plate was developed with a mixture of chloroform, methanol and acetic acid (99.2:0.6:0.2). Radioactivity of dihydrotestosteron generated on plate was measured by TLC scanner of radio-autography and inhibitory ratio was calculated.
On to `CCCCCc1cccc(/C(C)=C/C(=O)Nc2ccccc2OCCCC(=O)O)c1` [1 (a), 4-[2-(3-pentyl-β-methylcinnamoylamino)phenoxy]butanoic acid], for which the IC50 – broadly, the point on the concentration scale where inhibition reaches its midpoint – turned out to be 160 nM.

Turning to `C/C(=C\C(=O)Nc1ccccc1OCCCC(=O)O)c1ccc(CC(C)(C)C)cc1` [1 (b)], inhibition was half-maximal at 370 nM (IC50).

The compound `CCC(CC)Cc1ccc(/C(C)=C/C(=O)Nc2ccccc2OCCCC(=O)O)cc1` [1 (c), 4-[2-{4-(2-ethylbutyl)-β-methylcinnamoylamino}phenoxy]butanoic acid] registered a half-maximal inhibitory concentration (IC50) of 300 nM.

As for `CCCC(C)Cc1ccc(/C(C)=C/C(=O)Nc2ccccc2OCCCC(=O)O)cc1` (stereo not drawn) [1 (d), 4-[2-{4-(2-methylpentyl)-β-methylcinnamoylamino}phenoxy] butanoic acid], the IC50 is 340 nM.

Turning to `CCCCCOc1ccc(/C(C)=C/C(=O)Nc2ccccc2OCCCC(=O)O)c(F)c1` [1 (e), 4-[2-(2-fluoro-4-pentyloxy-β-methylcinnamoylamino)phenoxy]butanoic acid], the IC50 came to 280 nM.

In the case of `CCCCSc1ccc(/C(C)=C/C(=O)Nc2ccccc2OCCCC(=O)O)cc1` [1 (f), 4-[2-(4-butylthio-β-methylcinnamoylamino)phenoxy]butanoic acid], the IC50 is 430 nM.

`C/C(=C\C(=O)Nc1ccccc1OCCCC(=O)O)c1ccc(CC2CCC2)cc1` [1 (g), 4-[2-(4-cyclobutylmethyl-β-methylcinnamoylamino)phenoxy] butanoic acid] had an IC50 of 110 nM.

As for `C/C(=C\C(=O)Nc1ccccc1OCCCC(=O)O)c1ccc(CC2CCCCC2)cc1` [1 (h), 4-[2-(4-cyclohexylmethyl-β-methylcinnamoylamino)phenoxy] butanoic acid], the IC50 was 280 nM.

Take `C/C(=C\C(=O)Nc1ccccc1OCCCC(=O)O)c1ccc(CCCCc2ccccc2)cc1` [1 (i), 4-[2-{4-(4-phenylbutyl)-β-methylcinnamoylamino)phenoxy] butanoic acid]: the IC50 was 320 nM.

Turning to `C/C(=C\C(=O)Nc1ccccc1OCCCC(=O)O)c1ccc(Oc2ccccc2)cc1` [1 (j), 4-[2-(4-phenoxy-β-methylcinnamoylamino)phenoxy]butanoic acid], 250 nM corresponded to half-maximal inhibition (IC50).

For `CCCCCc1cccc(/C=C(\C)C(=O)Nc2ccccc2OCCCC(=O)O)c1` [1 (k), 4-[2-(3-pentyl-α-methylcinnamoylamino)phenoxy]butanoic acid], the IC50 was determined as 240 nM.

`C/C(=C\c1ccc(CCc2ccccc2)cc1)C(=O)Nc1ccccc1OCCCC(=O)O` [1 (l), 4-[2-(4-phenethyl-α-methylcinnamoylamino)phenoxy]butanoic acid] had an IC50 of 230 nM.

In turn, `CCCCCc1ccc(/C(C)=C/C(=O)Nc2ccccc2OCCCC(=O)O)cc1` [Example 1, 4-[2-(4-pentyl-β-methylcinnamoylamino)phenoxy]butanoic acid] registered an IC50 of 200 nM.
